Reference: US20220220145A1, “CYCLIC PHOSPHATE COMPOUNDS” (priority 2019, published 2022)

Test: Tissue distribution following oral administration of reference compounds and the disclosed compounds
Assay type: in vivo
Settings: rats; for levels of nucleoside phosphates in the liver compared to the reference compounds: oral administration, statement in words summarising Table 1
Experimental: The liver specificity of the disclosed compounds is compared relative to a corresponding active compound in liver and other organs that could be targets of toxicity.
Reference compounds and the cyclic phosphate compounds were administered at 5-50 mg/kg to fasted rats by oral gavage. Plasma concentrations of the metabolites, and parent compounds in circulation and in the hepatic portal vein were determined by HPLC-UV, and the liver, small intestine, and other organ concentrations were measured by LC-MS using standard chromatography methods.

| levels of nucleoside phosphates in the liver compared to the reference compounds | SMILES | NUCHPV: ratio of new compound vs corresponding reference compound in nucleoside level in hepatic portal vein (HPV) (one hour after oral administration at 5 mg/kg nucleoside equivalent dose, hepatic portal vein) | NMPliver: ratio of new compound vs corresponding reference compound in nucleoside monophosphate level in the liver (one hour after oral administration at 5 mg/kg nucleoside equivalent dose, liver) | NUCblood: ratio of new compound vs corresponding reference compound in nucleoside level in systemic blood (one hour after oral administration at 5 mg/kg nucleoside equivalent dose, systemic blood) |
| --- | --- | --- | --- | --- |
| substantially higher levels | CC(C)OC(=O)c1ccccc1COP1(=O)OC[C@H]2O[C@@H](n3ccc(=O)[nH]c3=O)[C@](C)(F)[C@@H]2O1 (stereo partly drawn) [Compound 107, Isopropyl 2-((((4aR,6R,7R,7aR)-6-(2,4-dioxo-3,4-dihydropyrimidin-1(2H)-yl)-7-fluoro-7-methyl-2-oxidotetrahydro-4H-furo[3,2-d][1,3,2]dioxaphosphinin-2-yl)oxy)methyl)benzoate] |  |  |  |
|  | [2H]C([2H])([2H])c1cn([C@H]2C[C@H](O)[C@@H](CO)O2)c(=O)[nH]c1=O [Thymidine-d3] | 1.0 | 1.0 | 1.0 |
| substantially higher levels | [2H]C([2H])([2H])c1cn([C@H]2C[C@@H]3OP(=O)(OCc4ccccc4C(=O)OCCC)OC[C@H]3O2)c(=O)[nH]c1=O (stereo partly drawn) [Compound 106, Propyl 2-((((4aR,6R,7aS)-6-(5-(methyl-d3)-2,4-dioxo-3,4-dihydropyrimidin-1(2H)-yl)-2-oxidotetrahydro-4H-furo[3,2-d][1,3,2]dioxaphosphinin-2-yl)oxy)methyl)benzoate] |  |  |  |
